Assay results taken from patent publication US9227971B2, “Pyrazolo[1,5-a]pyrimidine compounds as mTOR inhibitors” (Merck Sharp & Dohme Corp., priority 2010, dated 2016).
Like-named read-outs stand apart in the source and are kept apart here.

Columns and labels:
[1] = test system: phosphorylated AKT Ser473 (pAKT S473), mTORC2 activity, PC3 cells; test: mTOR target engagement assay, immunofluorescent cell-based, pAKT S473 readout (mTORC2 activity); conditions: Homo sapiens
How it was run: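 After blocking, cells were stained overnight at 4 °C with anti-pAKT S473 antibody, then a fluorescent secondary; inhibition was read as reduced fluorescence intensity.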

[2] = test system: phosphorylated 4E-BP1 Thr37/46 (p4E-BP1 Thr37/46), mTORC1 activity, PC3 cells; test: mTOR target engagement assay, immunofluorescent cell-based, p4E-BP1 Thr37/46 readout (mTORC1 activity); conditions: Homo sapiens, read-out: p4E-BP1 Thr37/46 IC50
How it was run: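 Cell-based immunofluorescence in PC3 cells: serially diluted compounds (0.25% DMSO, 5% FBS) applied for ninety minutes at 37° C before fixation and overnight 4° C staining of p4E-BP1 Thr37/46. Untreated DMSO wells set maximal phosphorylation; IC50 obtained by logistic fitting.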

[3] = PC-3, PC3 cells, compound treatment ninety minutes at 37° C.

Row | Structure (SMILES) | IC50 ([1]; PC-3, Table 6-1, PC3 cells) [µM] | IC50 ([2]; PC-3, Table 6-1, PC3 cells) [µM] | IC50 [1, 3] [µM] | IC50 [2, 3] [µM]
1 | Nc1c(C2CC2)c([C@@H]2C[C@H]3CC[C@@H](C2)N3C(=O)c2nnc[nH]2)nc2c(-c3ccc(-c4ncc[nH]4)c(F)c3)cnn12 [Compound 6.36, ((1R,3s,5S)-3-(7-amino-6-cyclopropyl-3-(3-fluoro-4-(1H-imidazol-2-yl)phenyl)pyrazolo[1,5-a]pyrimidin-5-yl)-8-azabicyclo[3.2.1]octan-8-yl)(4H-1,2,4-triazol-3-yl)methanone] | 0.001 to 0.1 | 0.001 to 0.1 |  | 
2 | Nc1c(C2CC2)c([C@@H]2C[C@H]3CC[C@@H](C2)N3C(=O)CO)nc2c(-c3ccc(-c4ncc[nH]4)c(F)c3)cnn12 [Compound 6.37, 1-((1R,3s,5S)-3-(7-amino-6-cyclopropyl-3-(3-fluoro-4-(1H-imidazol-2-yl)phenyl)pyrazolo[1,5-a]pyrimidin-5-yl)-8-azabicyclo[3.2.1]octan-8-yl)-2-hydroxyethanone] | 0.001 to 0.1 | 0.001 to 0.1 |  | 
3 | CC(=O)c1c([C@@H]2C[C@H]3CC[C@@H](C2)N3C(=O)CO)nc2c(-c3ccc(-c4ncc(C)[nH]4)c(F)c3)cnn2c1N [Compound 6.38, 1-((1R,3s,5S)-3-(6-acetyl-7-amino-3-(3-fluoro-4-(5-methyl-1H-imidazol-2-yl)phenyl)pyrazolo[1,5-a]pyrimidin-5-yl)-8-azabicyclo[3.2.1]octan-8-yl)-2-hydroxyethanone] | 0.001 to 0.1 | 0.1 to 1 |  | 
4 | CC(=O)c1c([C@@H]2C[C@H]3CC[C@@H](C2)N3C(=O)c2nnc[nH]2)nc2c(-c3ccc(-c4ncc(C)[nH]4)c(F)c3)cnn2c1N [Compound 6.39, 1-(5-((1R,3s,5S)-8-(4H-1,2,4-triazole-3-carbonyl)-8-azabicyclo[3.2.1]octan-3-yl)-7-amino-3-(3-fluoro-4-(5-methyl-1H-imidazol-2-yl)phenyl)pyrazolo[1,5-a]pyrimidin-6-yl)ethanone] | 0.001 to 0.1 | 0.1 to 1 |  | 
5 | CC(=O)c1c([C@@H]2C[C@H]3CC[C@@H](C2)N3C(=O)CO)nc2c(-c3ccc(-c4ncc[nH]4)c(F)c3)cnn2c1N [Compound 6.40, 1-((1R,3s,5S)-3-(6-acetyl-7-amino-3-(3-fluoro-4-(1H-imidazol-2-yl)phenyl)pyrazolo[1,5-a]pyrimidin-5-yl)-8-azabicyclo[3.2.1]octan-8-yl)-2-hydroxyethanone] | 0.001 to 0.1 | 0.001 to 0.1 |  | 
6 | CC(=O)c1c([C@@H]2C[C@H]3CC[C@@H](C2)N3C(=O)c2nnc[nH]2)nc2c(-c3ccc(-c4ncc[nH]4)c(F)c3)cnn2c1N [Compound 6.41, 1-(5-((1R,3s,5S)-8-(4H-1,2,4-triazole-3-carbonyl)-8-azabicyclo[3.2.1]octan-3-yl)-7-amino-3-(3-fluoro-4-(1H-imidazol-2-yl)phenyl)pyrazolo[1,5-a]pyrimidin-6-yl)ethanone] | 0.001 to 0.1 | 0.001 to 0.1 |  | 
7 | CC(=O)c1c([C@@H]2C[C@H]3CC[C@@H](C2)N3C(=O)CO)nc2c(-c3ccc(-c4ncc[nH]4)cc3)cnn2c1N [Compound 6.42, 1-((1R,3s,5S)-3-(3-(4-(1H-imidazol-2-yl)phenyl)-6-acetyl-7-aminopyrazolo[1,5-a]pyrimidin-5-yl)-8-azabicyclo[3.2.1]octan-8-yl)-2-hydroxyethanone] | 0.001 to 0.1 | 0.001 to 0.1 |  | 
8 | CC(=O)c1c([C@@H]2C[C@H]3CC[C@@H](C2)N3C(=O)c2nnc[nH]2)nc2c(-c3ccc(-c4ncc[nH]4)cc3)cnn2c1N [Compound 6.43, 1-(3-(4-(1H-imidazol-2-yl)phenyl)-5-((1R,3s,5S)-8-(4H-1,2,4-triazole-3-carbonyl)-8-azabicyclo[3.2.1]octan-3-yl)-7-aminopyrazolo[1,5-a]pyrimidin-6-yl)ethanone] | 0.001 to 0.1 | 0.001 to 0.1 |  | 
9 | CC(=O)c1c([C@@H]2C[C@H]3CC[C@@H](C2)N3C(=O)C(C)(CO)CO)nc2c(-c3ccc(-c4ncc[nH]4)nc3)cnn2c1N [Compound 6.46, 1-((1R,3s,5S)-3-(3-(6-(1H-imidazol-2-yl)pyridin-3-yl)-6-acetyl-7-aminopyrazolo[1,5-a]pyrimidin-5-yl)-8-azabicyclo[3.2.1]octan-8-yl)-3-hydroxy-2-(hydroxymethyl)-2-methylpropan-1-one] | 0.1 to 1 | 0.1 to 1 |  | 
10 | CC(=O)c1c([C@@H]2C[C@H]3CC[C@@H](C2)N3C(=O)c2nnc[nH]2)nc2c(-c3ccc(CO)nc3)cnn2c1N [Compound 7.1, 1-(5-((1R,3s,5S)-8-(4H-1,2,4-triazole-3-carbonyl)-8-azabicyclo[3.2.1]octan-3-yl)-7-amino-3-(6-(hydroxymethyl)pyridin-3-yl)pyrazolo[1,5-a]pyrimidin-6-yl)ethanone] |  |  | 0.001 to 0.1 | 0.001 to 0.1
11 | CCC(O)c1ccc(-c2cnn3c(N)c(C(C)=O)c([C@@H]4C[C@H]5CC[C@@H](C4)N5C(=O)c4nnc[nH]4)nc23)cn1 (stereo partly drawn) [Compound 7.3] |  |  | 0.001 to 0.1 | 0.1 to 1
12 | CC(=O)c1c([C@@H]2C[C@H]3CC[C@@H](C2)N3C(=O)c2nnc[nH]2)nc2c(-c3ccc(C(C)O)nc3)cnn2c1N (stereo partly drawn) [Compound 7.4, 1-(5-((1R,3s,5S)-8-(4H-1,2,4-triazole-3-carbonyl)-8-azabicyclo[3.2.1]octan-3-yl)-7-amino-3-(6-(1-hydroxyethyl)pyridin-3-yl)pyrazolo[1,5-a]pyrimidin-6-yl)ethanone] |  |  | 0.001 to 0.1 | 0.001 to 0.1
13 | CC(=O)c1c([C@@H]2C[C@H]3CC[C@@H](C2)N3C(=O)c2ncn[nH]2)nc2c(-c3ccc(C(C)(C)O)nc3)cnn2c1N [Compound 7.5, 1-(5-((1R,3s,5S)-8-(1H-1,2,4-triazole-5-carbonyl)-8-azabicyclo[3.2.1]octan-3-yl)-7-amino-3-(6-(2-hydroxypropan-2-yl)pyridin-3-yl)pyrazolo[1,5-a]pyrimidin-6-yl)ethanone] |  |  | 0.001 to 0.1 | 0.001 to 0.1
14 | CC(=O)c1c([C@@H]2C[C@H]3CC[C@@H](C2)N3C(=O)c2nnc[nH]2)nc2c(-c3ccc(C(O)CC(C)C)nc3)cnn2c1N (stereo partly drawn) [Compound 7.6, 1-(5-((1R,3s,5S)-8-(4H-1,2,4-triazole-3-carbonyl)-8-azabicyclo[3.2.1]octan-3-yl)-7-amino-3-(6-(1-hydroxy-3-methylbutyl)pyridin-3-yl)pyrazolo[1,5-a]pyrimidin-6-yl)ethanone] |  |  | 1 to 10 | 0.1 to 1
15 | CC(=O)c1c([C@@H]2C[C@H]3CC[C@@H](C2)N3C(=O)CO)nc2c(-c3ccc(C(C)(C)O)nc3)cnn2c1N [Compound 7.8, 1-((1R,3s,5S)-3-(6-acetyl-7-amino-3-(6-(2-hydroxypropan-2-yl)pyridin-3-yl)pyrazolo[1,5-a]pyrimidin-5-yl)-8-azabicyclo[3.2.1]octan-8-yl)-2-hydroxyethanone] |  |  | 0.1 to 1 | 0.1 to 1
16 | CC(=O)c1c([C@@H]2C[C@H]3CC[C@@H](C2)N3C(=O)c2nnc(C)[nH]2)nc2c(-c3ccc(C(C)(C)O)nc3)cnn2c1N [Compound 7.9, 1-(7-amino-3-(6-(2-hydroxypropan-2-yl)pyridin-3-yl)-5-((1R,3s,5S)-8-(5-methyl-4H-1,2,4-triazole-3-carbonyl)-8-azabicyclo[3.2.1]octan-3-yl)pyrazolo[1,5-a]pyrimidin-6-yl)ethanone] |  |  | 0.1 to 1 | 0.1 to 1
17 | CC(=O)c1c([C@@H]2C[C@H]3CC[C@@H](C2)N3C(=O)c2cnn[nH]2)nc2c(-c3ccc(C(C)(C)O)nc3)cnn2c1N [Compound 7.10, 1-(5-((1R,3s,5S)-8-(1H-1,2,3-triazole-5-carbonyl)-8-azabicyclo[3.2.1]octan-3-yl)-7-amino-3-(6-(2-hydroxypropan-2-yl)pyridin-3-yl)pyrazolo[1,5-a]pyrimidin-6-yl)ethanone] |  |  | 0.1 to 1 | 0.1 to 1
18 | CC(=O)c1c([C@@H]2C[C@H]3CC[C@@H](C2)N3C(=O)c2cc[nH]n2)nc2c(-c3ccc(C(C)(C)O)nc3)cnn2c1N [Compound 7.11, 1-(5-((1R,3s,5S)-8-(1H-pyrazole-3-carbonyl)-8-azabicyclo[3.2.1]octan-3-yl)-7-amino-3-(6-(2-hydroxypropan-2-yl)pyridin-3-yl)pyrazolo[1,5-a]pyrimidin-6-yl)ethanone] |  |  | 0.001 to 0.1 | 0.1 to 1
19 | CC(=O)c1c([C@@H]2C[C@H]3CC[C@@H](C2)N3C(=O)c2cn[nH]c2)nc2c(-c3ccc(C(C)(C)O)nc3)cnn2c1N [Compound 7.12, 1-(5-((1R,3s,5S)-8-(1H-pyrazole-4-carbonyl)-8-azabicyclo[3.2.1]octan-3-yl)-7-amino-3-(6-(2-hydroxypropan-2-yl)pyridin-3-yl)pyrazolo[1,5-a]pyrimidin-6-yl)ethanone] |  |  | 0.1 to 1 | 0.1 to 1
20 | CC(=O)c1c([C@@H]2C[C@H]3CC[C@@H](C2)N3C(=O)c2nnc(N)[nH]2)nc2c(-c3ccc(C(C)(C)O)nc3)cnn2c1N [Compound 7.13, 1-(7-amino-5-((1R,3s,5S)-8-(5-amino-4H-1,2,4-triazole-3-carbonyl)-8-azabicyclo[3.2.1]octan-3-yl)-3-(6-(2-hydroxypropan-2-yl)pyridin-3-yl)pyrazolo[1,5-a]pyrimidin-6-yl)ethanone] |  |  | 0.1 to 1 | 0.1 to 1
21 | CC(=O)c1c([C@@H]2C[C@H]3CC[C@@H](C2)N3C(=O)c2nnc[nH]2)nc2c(-c3ccc([C@@H](C)O)nc3)cnn2c1N [Compound 7.14, 1-(5-((1R,3s,5S)-8-(4H-1,2,4-triazole-3-carbonyl)-8-azabicyclo[3.2.1]octan-3-yl)-7-amino-3-(6-((R)-1-hydroxyethyl)pyridin-3-yl)pyrazolo[1,5-a]pyrimidin-6-yl)ethanone] |  |  | 0.1 to 1 | 0.1 to 1
